Measured values as given in patent US12325690B2, “Compounds for the reducing lipotoxic damage” (Mayo Foundation for Medical Education and Research, priority 2017, dated 2025).
Entries after “also recorded” stand apart in the source; their conditions may differ.

Key:
[1] = system: acinar cells incubated with GTL; experiment: GTL induced acinar injury (LDH leakage); format: cell-based; conditions: 10 micromolar
From the text: (§1) These lipases form 15-30% of pancreatic lipases.

[2] = system: ob/ob mice with severe pancreatitis; experiment: Caerulein-induced severe pancreatitis in obese ob/ob mice; conditions: 20 mg/kg single intraperitoneal dose
Experimental: Genetically obese male ob/ob mice (50-60 gm) were used and baseline tail vein blood draw was collected for serum lipase, triglycerides, and BUN (blood urea nitrogen). […] Severe pancreatitis was induced by implanting an alzet pump subcutaneously containing 2.5 mg/ml caerulein, which was administered at a dose of 50 mc/kg/hr. Six hours later a tail vein sample (50 microliters) was tested for serum lipase to verify an increase >3 fold basal.
Animals were sacrificed if they were moribund.

[3] = target: T1, recombinant human pancreatic lipase related protein 2 (hPLRP2) (Homo sapiens, UniProt P54317); experiment: FFA generation by recombinant hPLRP2; format: biochemical; conditions: % FFA generation; read-out: IC50 against hPLRP2
T1 sequence (P54317 18-469): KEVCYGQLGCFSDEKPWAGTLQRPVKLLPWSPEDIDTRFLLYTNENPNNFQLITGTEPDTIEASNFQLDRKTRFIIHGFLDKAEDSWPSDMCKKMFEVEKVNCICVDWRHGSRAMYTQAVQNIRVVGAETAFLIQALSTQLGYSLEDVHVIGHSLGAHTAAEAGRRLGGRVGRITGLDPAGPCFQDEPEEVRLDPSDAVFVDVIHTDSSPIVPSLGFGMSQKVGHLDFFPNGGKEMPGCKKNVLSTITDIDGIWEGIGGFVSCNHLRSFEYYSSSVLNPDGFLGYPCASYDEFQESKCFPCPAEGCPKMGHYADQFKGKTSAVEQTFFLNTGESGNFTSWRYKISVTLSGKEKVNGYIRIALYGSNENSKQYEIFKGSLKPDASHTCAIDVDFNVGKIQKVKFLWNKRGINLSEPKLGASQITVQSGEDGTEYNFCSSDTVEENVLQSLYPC
Experimental: (§2) The efficacy of a selection of the prepared analogs was explored to determine their ability to inhibit free fatty acid (FFA) generation from recombinant human lipases while retaining stability. To test these features, the analogs were dissolved in ethanol (200 mM stock) and further diluted to a 600 micromolar (0.3% ethanol) working stock in PBS. The agents were incubated with the recombinant enzymes in serial ⅓ dilutions spanning a range of 200 to 0.3 micromolar for 30 minutes, and then added to the substrate 1 mM glyceryl trilinoleate (GTL) in PBS, pH 7.4 along with cofactor colipase (CLPS; 0.5 mcg/ml).
as §1

[4] = system: Mouse pancreatic acinar cells; experiment: Toxicity study in pancreatic acinar cells (ATP levels, LDH leakage); format: cell-based; conditions: 4 hours, 20-200 micromolar range
Experimental: Toxicity studies of the relevant compounds were also performed using by diluting the original ethanol stock 200 mM into the incubation medium for acinar cells (HEPES buffer, pH 7.4, as described by Navina et al) 600 micromolar stock solutions of the compounds in 0.3% ethanol in PBS. These were added to acinar cells at ⅓ dilutions starting at 200 micromolar. Mouse pancreatic acinar ATP levels and LDH leakage were measured over 4 hours and compared to control. Any number positive over control indicates % injury greater than control acini.

[5] = target: T2, recombinant human pancreatic tri-acyl glycerol lipase [PNLIP; hPTL] (Homo sapiens, UniProt P16233); experiment: FFA generation from glyceryl trilinoleate by recombinant hPNLIP with colipase; format: biochemical
T2 sequence (P16233 17-465): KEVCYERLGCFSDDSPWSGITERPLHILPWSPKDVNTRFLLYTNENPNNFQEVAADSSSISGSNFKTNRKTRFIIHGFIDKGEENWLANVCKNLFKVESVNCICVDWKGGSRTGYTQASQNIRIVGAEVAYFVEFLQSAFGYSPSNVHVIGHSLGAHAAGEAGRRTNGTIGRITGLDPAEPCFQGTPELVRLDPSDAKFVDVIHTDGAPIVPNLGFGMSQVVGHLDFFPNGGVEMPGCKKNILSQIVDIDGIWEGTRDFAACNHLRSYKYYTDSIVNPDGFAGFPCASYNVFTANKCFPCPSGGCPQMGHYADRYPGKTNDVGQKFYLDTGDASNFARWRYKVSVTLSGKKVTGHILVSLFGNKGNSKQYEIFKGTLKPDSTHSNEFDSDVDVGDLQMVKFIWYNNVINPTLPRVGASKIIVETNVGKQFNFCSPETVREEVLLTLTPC
T2 sequence (P04118 23-112 partner): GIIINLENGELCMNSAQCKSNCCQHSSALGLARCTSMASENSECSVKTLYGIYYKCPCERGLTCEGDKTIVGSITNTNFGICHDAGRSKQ
Experimental: as §2

[6] = system: Propionibacterium acnes (Strain VPI0389, ATCC); experiment: Lipolysis / FFA generation by P. acnes culture; format: cell-based; conditions: broth FFA generation and spirit blue agar
Experimental: For medium, 2.0 g of Casein hydrolysate enzymatic digest (Cat #12855, Affymetrix Inc, Ohio, USA), 1.0 g of Yeast extract (Cat #61180-5000, Acros organics, New Jersey, USA) and 0.03 g of Victoria Blue B (Cat #sc-216055, Santa Crutz Biotechnology Inc, California, USA) were dissolved completely in 200 ml of double distilled water with mild heating. The mixed solution was sterilized by autoclaving at 15 lbs pressure (121° C.) for 15 min. The autoclaved solution allowed to cool down to 50° C., then 6 ml of emulsified lipase substrate slowly added with continuous stirring to get an even distribution and stored at 4° C. for P. acnes culture.
Lipase substrate preparation: Lipase substrate was prepared by mixing 200 μl of Tween 80 (Cat #P4780, Sigma, St louis, USA) in 100 ml of warm double distilled water and 25 ml of Cotton seeds oil (Cat #C0145, Spectrum chemical, California, USA). […]
A small part of lyophilized Propionibacterium acnes (Strain VPI0389, ATCC) was added to the medium and allowed to grow at 37° C. for 48 h in a BD GasPak EZ standard incubation container (Cat #260671, Beckton Dickinson, MD, USA) with two anaerobe Sachets (Cat #260683, Beckton Dickinson, MD, USA) which maintained the anaerobic condition within the container. After 48 h of culture, bacterial count was measured by turbidity (OD600 nm) method. […]

[7] = target: T3, carboxyester lipase (hCEL) (Homo sapiens, UniProt P19835); experiment: FFA generation by recombinant hCEL; format: biochemical; conditions: % FFA generation; read-out: IC50 against hCEL
T3 sequence (P19835 21-753): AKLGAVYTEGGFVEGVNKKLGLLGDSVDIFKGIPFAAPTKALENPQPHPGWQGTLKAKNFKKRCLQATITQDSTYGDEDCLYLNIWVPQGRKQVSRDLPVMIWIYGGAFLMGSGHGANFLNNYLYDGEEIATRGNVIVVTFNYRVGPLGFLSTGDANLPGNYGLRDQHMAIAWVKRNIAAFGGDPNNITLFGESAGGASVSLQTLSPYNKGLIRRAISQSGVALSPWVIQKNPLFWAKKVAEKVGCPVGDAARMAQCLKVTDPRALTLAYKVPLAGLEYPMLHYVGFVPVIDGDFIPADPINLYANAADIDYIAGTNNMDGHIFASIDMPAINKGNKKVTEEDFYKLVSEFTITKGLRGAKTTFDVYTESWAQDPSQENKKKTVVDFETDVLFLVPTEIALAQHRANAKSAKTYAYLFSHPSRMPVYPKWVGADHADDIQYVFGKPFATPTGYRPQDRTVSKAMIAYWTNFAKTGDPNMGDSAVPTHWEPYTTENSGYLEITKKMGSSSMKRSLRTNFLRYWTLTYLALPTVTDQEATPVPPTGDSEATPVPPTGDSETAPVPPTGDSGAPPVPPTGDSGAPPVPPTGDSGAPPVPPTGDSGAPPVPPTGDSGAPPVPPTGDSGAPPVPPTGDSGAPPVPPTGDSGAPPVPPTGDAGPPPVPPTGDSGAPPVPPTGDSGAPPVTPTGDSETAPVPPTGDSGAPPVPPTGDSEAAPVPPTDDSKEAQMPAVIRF
Experimental: as §2, §1

[8] = target: T4, pancreatic lysate lipase (Mus musculus, UniProt Q6P8U6); experiment: Lipase activity assay with pancreatic lysate (commercial Pointe scientific lipase assay); format: biochemical
T4 construct: efficacy against mouse pancreatic lysates; other: summary of strengths of 767; efficacy as a solution when left overnight; other: solution left overnight; efficacy in the lipase activity assay compared with orlistat when fresh; other: fresh solution; IC50 of orlistat after overnight incubation (nearest tested concentration); other: after overnight incubation; improvement in stability and e
T4 sequence (Q6P8U6 17-465): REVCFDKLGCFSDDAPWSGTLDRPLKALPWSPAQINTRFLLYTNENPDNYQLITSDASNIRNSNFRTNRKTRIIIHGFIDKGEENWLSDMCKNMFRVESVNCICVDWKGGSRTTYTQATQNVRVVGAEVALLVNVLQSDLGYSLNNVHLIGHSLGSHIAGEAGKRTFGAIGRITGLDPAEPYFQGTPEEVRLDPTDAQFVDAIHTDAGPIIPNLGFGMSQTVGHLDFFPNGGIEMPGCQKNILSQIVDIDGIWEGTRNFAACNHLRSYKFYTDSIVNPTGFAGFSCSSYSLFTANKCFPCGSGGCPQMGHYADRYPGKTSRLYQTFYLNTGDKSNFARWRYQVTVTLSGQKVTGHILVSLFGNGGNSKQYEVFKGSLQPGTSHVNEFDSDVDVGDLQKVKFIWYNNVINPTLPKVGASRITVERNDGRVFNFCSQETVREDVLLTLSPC
Experimental: To test the efficacy of these compounds, the agents were dissolved as a 20 mM stock in ethanol, and further diluted to in PBS as a 600 micromolar working stock (3.3% ethanol). This was either used immediately or left at room temperature for 16-20 hours overnight before retesting efficacy. The agents were incubated with a pancreatic lysate in serial ⅓ dilutions spanning a range of 200 to 0.3 micromolars for 30 minutes. 5 microliters of these mixtures were then used to measure lipase activity using a commercial lipase assay (Pointe scientific) containing a monoacyl glycerol lipase in the reagent. The lipase assay was done using reagents in proportion to the recommended protocol. Values were depicted as % maximal lipase activity of the well without any inhibitor.

CCCCCCCCCCC[C@@H](C[C@@H]1OC(=O)[C@H]1CC)OC(=O)[C@H](C)NC=O [Compound 767]
efficacy in reducing GTL induced acinar injury compared with orlistat ([1]; LDH leakage): more efficacious
toxicity compared with orlistat ([1]; acinar cells): less toxic
5 day survival [2]: 8/8
PD (pulse distention, shock) [2]: 290±20 μm
UFAs [2]: 2.4 ± 0.4 mM
hypertriglyceridemia [2]: without the hypertriglyceridemia
leucopenia (mice affected) [2]: 0/8
serum calcium [2]: 8.8 ± 1.0 mg/dL
temperature (hypothermia) [2]: 94.1±0.8 ° F.
BUN (peak) ([2]; caerulein pancreatitis): 18.5 ± 0.9 mg/dL
IC50 [3]: ≤ 2000 nM
toxicity to acinar cells [4]: lower toxicity
IC50 against hPNLIP, fold lower than orlistat or 741 ([5]; in the presence of colipase (CLPS), 1 mM GTL substrate): 50 ×
stability in aqueous solution ([5]; retention of inhibition after overnight storage): best stability; also recorded: better stability in aqueous media
IC50 ([5]; solution stored overnight, with colipase, read-out: IC50 against hPNLIP when stored overnight): < 2000 nM
potency against the most prevalent lipase (hPTL) ([5]; summary of strengths of 767): higher potency
lipolysis by P. acnes [6]: inhibited
IC50 [7]: ≤ 2000 nM
efficacy in the lipase activity assay compared with orlistat when fresh ([8]; fresh solution): equivalent efficacy
efficacy as a solution when left overnight ([8]; solution left overnight): significantly retained its efficacy
efficacy against mouse pancreatic lysates ([8]; summary of strengths of 767): higher efficacy
